Test results published in PubChem BioAssay AID2060355 (Molecular Pharmacology Branch, DTP, NCI, 2025).
Where “and” joins values, the source holds several entries; their conditions need not be identical. Equal values may be shown once.

Tested on: 485368-065-R4-J2-PDC spheroids with HUVEC/MSC, viability
Test: Anticancer human tumor 485368-065-R4-J2-PDC patient-derived pancreatic carcinoma cell line growth inhibition [TAK]
Conditions: for viability, T/C: stronger effect = lower value
Text: Combinatorial screen of targeted agents with TAK-243 and ipatasertib in multi-cell type tumor spheroids
A high-throughput screen of multi-cell type tumor spheroids was designed to identify active combinations of targeted small molecules and TAK-243 or ipatasertib. Complex spheroids include a stromal component modeled by human endothelial cells (HUVEC) and fibroblasts modeled by human mesenchymal stem cells (MSCs). The concentration ranges selected for each drug and investigational agent were based upon clinically achievable concentrations if the clinical Cmax of the agent was known.
Compounds. The drugs and investigational agents: TAK-243 (785004), ipatasertib (767898), everolimus (733504), selumetinib (741078), bortezomib (756655), trametinib (758246), ixazomib (758254), vemurafenib (761431), dabrafenib (764134), sapanisertib (764658), alpelisib (765974), and copanlisib (816437), were obtained from the National Cancer Institute (NCI) Developmental Therapeutics Program Chemical Repository. The FDA-approved anticancer drug set is available from the NCI Developmental Therapeutics Program. […] The stock solutions were prepared in dimethyl sulfoxide (DMSO, Sigma-Aldrich, St. Louis, MO, cat. D2650) at 800-fold the tested concentration and stored at -70 degrees C prior to their use. All drugs and investigational agents were tested over a range starting from a high concentration at or near the clinical Cmax and decreasing in half-log increments. If the clinical Cmax for an agent had not been determined, the highest concentration tested was 10 microM.
NCI60 Cell Culture. NCI60 cell lines were obtained from the NCI Developmental Therapeutics Program Tumor Repository. For each lot of cells, the Repository performed Applied Biosystems AmpFLSTR Identifiler testing with PCR amplification to confirm consistency with the published Identifier STR profile for each cell line. Cells were kept in continuous culture for no more than 20 passages. The optimal seeding densities for each of the cell lines at each time point assessed were determined prior to performing the concentration response studies. Briefly, the NCI60 human tumor lines were grown as monolayers in RPMI 1640 medium supplemented with 10% FBS and 2 mmol/L L-glutamine.
An additional 2 lines were from the NCI60 cell line panel including melanomas, MALME-3M and SK-MEL-2. Pooled donor human umbilical vein endothelial cells (HUVEC, Lonza, cat. CC-2519) and human mesenchymal stem cells (hMSC, Lonza, cat. PT-2501) were purchased from Lonza (Walkersville, MD).
PDMR cell lines were grown in complete medium (DC medium): Dulbecco's modified Eagle's medium (DMEM)/F12 supplemented with 5% fetal bovine serum (FBS), 2 mM L-glutamine, 100 U/mL penicillin and 100 µg/ml streptomycin, 0.4 µg/ml hydrocortisone, 10 ng/ml epidermal growth factor (EGF) recombinant human protein, 24 µg/mL adenine, and 0.1 mg/mL primocin. During culture from frozen stock vials, PDMR cells were cultured in the same medium containing 10 µM Y-27632 (see Table 3). The PDCs were cultured in complete DMEM/F12 media without 10 microM Y-27632 dihydrochloride for at least two passages prior to the screen. The pooled donor HUVEC and hMSC were cultured in endothelial cell growth medium 2 (PromoCell, Heidelberg, Germany, cat. C-22011) and mesenchymal stem cell growth medium 2 (PromoCell, cat. C-28009), respectively. For all experiments, HUVEC and hMSC were used at passages </=5.
For the pre-screen, cell seeding densities were determined from a titration spanning the range from 5,000 to 313 cells per well. The mct-spheroids including 60% malignant cells, 25% HUVEC and 15% MSC dispensed as a mixture into U-bottom Ultra-Low Attachment 384-well plates (Corning, NY)
High-throughput Drug Combination Screening.
Prior to their inoculation into 384-well plates, malignant cells, HUVEC, and hMSC were removed from T flasks using TrypLE express (Thermo Fisher Scientific, cat. 12605036) and harvested by centrifugation for 5 min at 233 x g. […]
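Also: spheroids exposed to compounds for seven days before readout.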
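For viability, T/C in this document: 100% = DMSO vehicle control wells.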

## CC(=O)Nc1cccc(-n2c(=O)n(C3CC3)c(=O)c3c(Nc4ccc(I)cc4F)n(C)c(=O)c(C)c32)c1
Compound 94.9 pM
  viability, T/C: 99.6% and 93%
Compound 0.0003 µM
  viability, T/C: 77.8% and 84%
Compound 0.000949 µM
  viability, T/C: 63.6% and 75.9%
Compound 0.003 µM
  viability, T/C: 62.5% and 71%
Compound 0.00949 µM
  viability, T/C: 45.7% and 50.3%
Compound 0.03 µM
  viability, T/C: 29.4% and 30.5%
Curve of compound
  IC50: 5.19 nM and 10.4 nM

## CC(C)(C)c1nc(-c2cccc(NS(=O)(=O)c3c(F)cccc3F)c2F)c(-c2ccnc(N)n2)s1
Compound 0.0316 µM
  viability, T/C: 111% and 113%
Compound 0.1 µM
  viability, T/C: 101% and 105%
Compound 0.316 µM
  viability, T/C: 84.3% and 89.6%
Compound 1 µM
  viability, T/C: 57.7% and 75.8%
Compound 3.16 µM
  viability, T/C: 57% and 60.5%
Compound 10 µM
  viability, T/C: 49.8% and 54.4%
Curve of compound
  IC50: > 10000 nM

## CC(C)CC(NC(=O)C(Cc1ccccc1)NC(=O)c1cnccn1)B(O)O (stereo unspecified)
Compound 31.6 pM
  viability, T/C: 108% and 103%
Compound 0.0001 µM
  viability, T/C: 101%
Compound 0.000316 µM
  viability, T/C: 96.3% and 89.7%
Compound 0.001 µM
  viability, T/C: 99% and 102%
Compound 0.00316 µM
  viability, T/C: 107% and 114%
Compound 0.01 µM
  viability, T/C: 9.55% and 6.03%
Curve of compound
  IC50: 6.05 nM and 5.9 nM

## CC(C)CC(NC(=O)CNC(=O)c1cc(Cl)ccc1Cl)B1OC(=O)CC(CC(=O)O)(C(=O)O)O1 (stereo unspecified)
Compound 0.000316 µM
  viability, T/C: 94.9% and 95.6%
Compound 0.001 µM
  viability, T/C: 102% and 98.5%
Compound 0.00316 µM
  viability, T/C: 94.6% and 94.7%
Compound 0.01 µM
  viability, T/C: 108% and 110%
Compound 0.0316 µM
  viability, T/C: 61.6% and 60.1%
Compound 0.1 µM
  viability, T/C: 9.41% and 9.34%
Curve of compound
  IC50: 40.8 nM and 39.7 nM

## CC(C)NCC(C(=O)N1CCN(c2ncnc3c2C(C)CC3O)CC1)c1ccc(Cl)cc1 (stereo unspecified)
Compound 0.3 µM
  viability, T/C: 95.9% [middle of 10 runs]
Compound 0.949 µM
  viability, T/C: 94.7% [middle of 10 runs]
Compound 3 µM
  viability, T/C: 99.1% [middle of 10 runs]
Compound 9.49 µM
  viability, T/C: 91.6% [middle of 10 runs]
Compound 30 µM
  viability, T/C: 78% [middle of 10 runs]
Compound alone, run of 02/20/2020
  IC50: > 30000 nM

## CC(C)n1nc(-c2ccc3oc(N)nc3c2)c2c(N)ncnc21
Compound 0.000316 µM
  viability, T/C: 102% and 92.5%
Compound 0.001 µM
  viability, T/C: 103% and 94.1%
Compound 0.00316 µM
  viability, T/C: 89.2% and 90.2%
Compound 0.01 µM
  viability, T/C: 87.3% and 94.1%
Compound 0.0316 µM
  viability, T/C: 63.8% and 72.8%
Compound 0.1 µM
  viability, T/C: 44.3% and 46.3%
Curve of compound
  IC50: 72.5 nM and 85 nM

## CCCS(=O)(=O)Nc1ccc(F)c(C(=O)c2c[nH]c3ncc(-c4ccc(Cl)cc4)cc23)c1F
Compound 0.316 µM
  viability, T/C: 110% and 92.4%
Compound 1 µM
  viability, T/C: 102% and 117%
Compound 3.16 µM
  viability, T/C: 89.2% and 101%
Compound 10 µM
  viability, T/C: 43.3% and 56.3%
Compound 31.6 µM
  viability, T/C: 99.8% and 46.6%
Compound 100 µM
  viability, T/C: 91.2% and 106%
Curve of compound
  IC50: > 100000 nM

## COC1CC2CCC(C)C(O)(O2)C(=O)C(=O)N2CCCCC2C(=O)OC(C(C)CC2CCC(OCCO)C(OC)C2)CC(=O)C(C)C=C(C)C(O)C(OC)C(=O)C(C)CC(C)C=CC=CC=C1C (stereo unspecified)
Compound 0.000316 µM
  viability, T/C: 89.3% and 76.4%
Compound 0.001 µM
  viability, T/C: 95.4% and 82.8%
Compound 0.00316 µM
  viability, T/C: 91.1% and 89.1%
Compound 0.01 µM
  viability, T/C: 92.2% and 96.3%
Compound 0.0316 µM
  viability, T/C: 92.8% and 90.3%
Compound 0.1 µM
  viability, T/C: 88.8% and 86.1%
Curve of compound
  IC50: > 100 nM

## COc1c(OCCCN2CCOCC2)ccc2c3n(c(=NC(=O)c4cnc(N)nc4)nc12)CCN3
Compound 0.00316 µM
  viability, T/C: 95.2% and 89.6%
Compound 0.01 µM
  viability, T/C: 74.6% and 75.8%
Compound 0.0316 µM
  viability, T/C: 72.5% and 70.2%
Compound 0.1 µM
  viability, T/C: 56.2% and 51.2%
Compound 0.316 µM
  viability, T/C: 32.7% and 29.9%
Compound 1 µM
  viability, T/C: 29.5% and 26.7%
Curve of compound
  IC50: 126 nM and 96.9 nM

## Cc1nc(NC(=O)N2CCCC2C(N)=O)sc1-c1ccnc(C(C)(C)C(F)(F)F)c1 (stereo unspecified)
Compound 0.0316 µM
  viability, T/C: 100% and 99.2%
Compound 0.1 µM
  viability, T/C: 92.8% and 93%
Compound 0.316 µM
  viability, T/C: 81.5% and 77.7%
Compound 1 µM
  viability, T/C: 81.9% and 78.4%
Compound 3.16 µM
  viability, T/C: 73.4% and 71.8%
Compound 10 µM
  viability, T/C: 51% and 48.5%
Curve of compound
  IC50: > 10000 nM

## Cn1cnc2c(F)c(Nc3ccc(Br)cc3Cl)c(C(=O)NOCCO)cc21
Compound 0.00949 µM
  viability, T/C: 70.9% and 67.5%
Compound 0.03 µM
  viability, T/C: 68.9% and 66.8%
Compound 0.0949 µM
  viability, T/C: 76.3% and 60.8%
Compound 0.3 µM
  viability, T/C: 64.8% and 51%
Compound 0.949 µM
  viability, T/C: 54.1% and 43.5%
Compound 3 µM
  viability, T/C: 36.9% and 30.2%
Curve of compound
  IC50: 1220 nM and 405 nM

## COC1CC2CCC(C)C(O)(O2)C(=O)C(=O)N2CCCCC2C(=O)OC(C(C)CC2CCC(OCCO)C(OC)C2)CC(=O)C(C)C=C(C)C(O)C(OC)C(=O)C(C)CC(C)C=CC=CC=C1C (stereo unspecified) + CC(C)NCC(C(=O)N1CCN(c2ncnc3c2C(C)CC3O)CC1)c1ccc(Cl)cc1
Curve of first compound, second compound 0.3 µM
  IC50: > 100 nM
Curve of first compound, second compound 0.949 µM
  IC50: > 100 nM
Curve of first compound, second compound 3 µM
  IC50: > 100 nM
Curve of first compound, second compound 9.49 µM
  IC50: > 100 nM
Curve of first compound, second compound 30 µM
  IC50: > 100 nM
Second compound 0.3 µM, first compound 0.000316 µM
  viability, T/C: 93.1%
Second compound 0.3 µM, first compound 0.001 µM
  viability, T/C: 102%
Second compound 0.3 µM, first compound 0.00316 µM
  viability, T/C: 104%
Second compound 0.3 µM, first compound 0.01 µM
  viability, T/C: 107%
Second compound 0.3 µM, first compound 0.0316 µM
  viability, T/C: 101%
Second compound 0.3 µM, first compound 0.1 µM
  viability, T/C: 102%
Second compound 0.949 µM, first compound 0.000316 µM
  viability, T/C: 103%
Second compound 0.949 µM, first compound 0.001 µM
  viability, T/C: 106%
Second compound 0.949 µM, first compound 0.00316 µM
  viability, T/C: 100%
Second compound 0.949 µM, first compound 0.01 µM
  viability, T/C: 92.1%
Second compound 0.949 µM, first compound 0.0316 µM
  viability, T/C: 87.3%
Second compound 0.949 µM, first compound 0.1 µM
  viability, T/C: 83.5%
Second compound 3 µM, first compound 0.000316 µM
  viability, T/C: 100%
Second compound 3 µM, first compound 0.001 µM
  viability, T/C: 97.1%
Second compound 3 µM, first compound 0.00316 µM
  viability, T/C: 82.9%
Second compound 3 µM, first compound 0.01 µM
  viability, T/C: 76.5%
Second compound 3 µM, first compound 0.0316 µM
  viability, T/C: 71.1%
Second compound 3 µM, first compound 0.1 µM
  viability, T/C: 74.4%
Second compound 9.49 µM, first compound 0.000316 µM
  viability, T/C: 83.8%
Second compound 9.49 µM, first compound 0.001 µM
  viability, T/C: 83.1%
Second compound 9.49 µM, first compound 0.00316 µM
  viability, T/C: 69%
Second compound 9.49 µM, first compound 0.01 µM
  viability, T/C: 71.4%
Second compound 9.49 µM, first compound 0.0316 µM
  viability, T/C: 64.3%
Second compound 9.49 µM, first compound 0.1 µM
  viability, T/C: 60.3%
Second compound 30 µM, first compound 0.000316 µM
  viability, T/C: 73.9%
Second compound 30 µM, first compound 0.001 µM
  viability, T/C: 69%
Second compound 30 µM, first compound 0.00316 µM
  viability, T/C: 63.9%
Second compound 30 µM, first compound 0.01 µM
  viability, T/C: 58.7%
Second compound 30 µM, first compound 0.0316 µM
  viability, T/C: 60.1%
Second compound 30 µM, first compound 0.1 µM
  viability, T/C: 54.5%
